Patent US8420851B2, “Selective TR-β 1 agonist” (Cadila Healthcare Limited, priority 2006, dated 2013)

Columns and labels:
TR-α = target: T1, TR-α (Homo sapiens, UniProt P10827); assay: In vitro TR-α activity (in-house protocol); assay type: cell-based
T1 sequence (P10827 1-410 isoform P10827-2): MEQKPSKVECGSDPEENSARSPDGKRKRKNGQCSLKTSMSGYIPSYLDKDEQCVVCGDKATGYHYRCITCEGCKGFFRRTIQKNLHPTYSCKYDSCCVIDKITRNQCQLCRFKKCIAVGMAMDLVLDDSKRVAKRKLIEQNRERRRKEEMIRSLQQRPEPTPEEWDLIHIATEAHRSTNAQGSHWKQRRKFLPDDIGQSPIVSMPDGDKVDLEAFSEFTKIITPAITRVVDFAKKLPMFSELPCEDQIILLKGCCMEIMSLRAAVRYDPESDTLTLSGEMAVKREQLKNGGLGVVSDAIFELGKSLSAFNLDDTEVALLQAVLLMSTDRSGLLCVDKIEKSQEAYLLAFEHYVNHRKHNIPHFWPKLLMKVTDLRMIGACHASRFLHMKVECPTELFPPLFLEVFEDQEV
Procedure: (§1) Invitro TR-α & TR-β activities were determined as per in-house protocols and the results of representative compounds are provided in tables 1 & 2 below as a proof of the efficacies of the novel class of compounds disclosed above.

TR-β = target: T2, TR-β (Homo sapiens, UniProt P10828); assay: In vitro TR-β activity (in-house protocol); assay type: cell-based; details: for fold induction at 0.001 µM: Conc. 1 nM; for fold induction at 0.001 µM / fold induction at 0.01 µM / fold induction at 0.1 µM / fold induction at 1 µM: read-out: TR-β Fold Induction w.r.t T3(100 nm); for fold induction at 0.01 µM: Conc. 10 nM; for fold induction at 0.1 µM: Conc. 100 nM; for fold induction at 1 µM: Conc. 1000 nM
T2 sequence (P10828 1-461): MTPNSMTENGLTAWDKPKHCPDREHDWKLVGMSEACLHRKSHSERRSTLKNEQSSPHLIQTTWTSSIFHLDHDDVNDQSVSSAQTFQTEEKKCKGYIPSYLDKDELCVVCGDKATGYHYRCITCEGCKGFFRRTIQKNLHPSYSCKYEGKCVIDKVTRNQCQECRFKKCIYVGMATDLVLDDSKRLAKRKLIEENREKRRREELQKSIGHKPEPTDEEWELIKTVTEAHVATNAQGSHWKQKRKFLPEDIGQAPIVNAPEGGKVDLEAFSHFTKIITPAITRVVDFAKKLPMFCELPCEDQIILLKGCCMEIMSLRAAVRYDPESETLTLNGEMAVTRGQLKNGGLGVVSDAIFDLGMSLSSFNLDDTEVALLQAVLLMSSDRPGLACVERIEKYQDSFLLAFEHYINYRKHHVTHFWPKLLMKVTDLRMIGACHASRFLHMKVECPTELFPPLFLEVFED
Procedure: as §1

Structure (SMILES)	EC50 (TR-α)	EC50 (TR-β)	TR-α Fold Induction w.r.t T3(100 nm) (TR-α; Conc. 1 nM)	TR-α Fold Induction w.r.t T3(100 nm) (TR-α; Conc. 10 nM)	TR-α Fold Induction w.r.t T3(100 nm) (TR-α; Conc. 100 nM)	TR-α Fold Induction w.r.t T3(100 nm) (TR-α; Conc. 1000 nM)	fold induction at 0.001 µM (TR-β)	fold induction at 0.01 µM (TR-β)	fold induction at 0.1 µM (TR-β)	fold induction at 1 µM (TR-β)
O=C(O)CN(C(=O)Oc1ccc(O)cc1)c1cc(Cl)c(Oc2ccc(O)c(C(=O)c3cccc(Cl)c3)c2)c(Cl)c1 [Example 47, [{3,5-Dichloro-4-[3-(3-chloro-benzoyl)-4-hydroxy-phenoxy]-phenyl}-(4-hydroxy-phenoxycarbonyl)-amino]-acetic acid]	16.4 nM	11.3 nM								
O=C(O)CN(C(=O)Oc1ccc(O)cc1)c1cc(Cl)c(Oc2ccc(O)c(C(=O)c3ccc(Cl)cc3)c2)c(Cl)c1 [Example 44, [{3,5-Dichloro-4-[3-(4-chloro-benzoyl)-4-hydroxy-phenoxy]-phenyl}-(4-hydroxy-phenoxycarbonyl)-amino]-acetic acid]	84.8 nM	14.8 nM								
CCC(C)c1cc(Oc2c(C)cc(N(CC(=O)O)CC(=O)O)cc2C)ccc1O (stereo not shown) [Example 21, {[4-(3-sec-Butyl-4-hydroxy-phenoxy)-3,5-dimethyl-phenyl]-carboxymethyl-amino}-acetic acid]			17.17	56.81	110.66	93.53	33.4	153	202	148
CC(C)(C)c1cc(Oc2c(Cl)cc(N(CC(=O)O)C(=O)Oc3ccc(O)cc3)cc2Cl)ccc1O [Example 35, [[4-(3-tert-Butyl-4-hydroxy-phenoxy)-3,5-dichloro-phenyl]-(4-hydroxy-phenoxycarbonyl)-amino]-acetic acid]			25.40	106.00	130.68	72.06	22.4	80.5	125	81.3
O=C(O)CN(C(=O)Oc1ccc(O)cc1)c1cc(Cl)c(Oc2ccc(O)c(C(O)c3ccc(Cl)cc3)c2)c(Cl)c1 (stereo not shown) [Example 56, [(3,5-Dichloro-4-{3-[(4-chloro-phenyl)-hydroxy-methyl]-4-hydroxy-phenoxy}-phenyl)-(4-hydroxy-phenoxycarbonyl)-amino]-acetic acid]	13.4 nM	20.4 nM								
CCOC(=O)N(CC(=O)O)c1cc(Cl)c(Oc2ccc(O)c(C(C)C)c2)c(Cl)c1 [Example 1, {[3,5-Dichloro-4-(4-hydroxy-3-isopropyl-phenoxy)-phenyl]-ethoxycarbonyl-amino}-acetic acid]	440 nM	146 nM								
Cc1cc(N(CC(=O)O)CC(=O)O)cc(C)c1Oc1ccc(O)c(C(C)C)c1 [Example 37, {Carboxymethyl-[4-(4-hydroxy-3-isopropyl-phenoxy)-3,5-dimethyl-phenyl]-amino}-acetic acid]			14.93	40.84	71.78	63.71	21.2	66.7	125	95.6
O=C(O)CN(C(=O)Oc1ccc(O)cc1)c1cc(Cl)c(Oc2ccc(O)c(S(=O)(=O)NC3CCC3)c2)c(Cl)c1 [Example 51, [[3,5-Dichloro-4-(3-cyclobutylsulfamoyl-4-hydroxy-phenoxy)-phenyl]-(4-hydroxy-phenoxycarbonyl)-amino]-acetic acid]			08.05	14.43	32.52	83.34	8.68	17	54.6	102
